Assays:
Format in all cases: in vivo
Conditions in all cases: application to foliage, 320 g/ha
Lolium multiflorum Lam. = test: Test Example 4: herbicidal effect by application to foliage (diluvial soil, plastic box)
Excerpt: (§1) 5 Herbicidal ratio of 90% or more (almost completely withered) 4 Herbicidal ratio of 70% or more and less than 90% 3 Herbicidal ratio of 40% or more and less than 70% 2 Herbicidal ratio of 20% or more and less than 40% 1 Herbicidal ratio of 5% or more and less than 20% 0 Herbicidal ratio of 5% or less (almost no effect) [Test Example 4] Herbicidal Effect Test by Application to Foliage Sterilized diluvial soil was placed in a plastic box having a length of 21 cm, a width of 13 cm, and a depth of 7 cm. Each of the seeds of Digitaria ciliaris, Setaria viridis, Echinochloa crus-galli var. crus-galli, Avena fatua, Alopecurus myosuroides, Lolium multiflorum Lam., Apera spica-venti., Abutilon theophrasti, Amaranthus retroflexus, Chenopodium album, Stellaria media, Galium spurium, Veronica persica, Zea mays, Glycine max, Oryza sativa, Triticum aestivum, Beta vulgaris ssp. vulgaris, and Brassica campestris L. was sowed in a spot-like manner and was covered with the soil of about 1.5 cm thick. Thereafter, the plants were grown in the greenhouse of 25° C. to 30° C. After the plants were grown for 14 days, the emulsion agent containing the compound of the present invention prepared in accordance with Formulation Example 2 was diluted with water so as to be a predetermined herbicide amount and the diluted compound was uniformly applied to a stem and leaf part with a small-size spray. Three weeks after the herbicide application, effects on each plant were investigated in accordance with the criteria of Test Example 1. A: Echinochloa oryzicola Vasing., B: Scirpus juncoides, C: Monochoria vaginalis, D: Leptochloa chinensis, E: Cyperus difformis, F: Digitaria ciliaris, G: Setaria viridis, H: Echinochloa crus-galli var. crus-galli, I: Avena fatua, J: Alopecurus myosuroides, K: Lolium multiflorum Lam., L: Apera spica-venti., M: Abutilon theophrasti, N: Amaranthus retroflexus, O: Chenopodium album, P: Stellaria media, Q: Galium spurium, R: Veronica persica, a: transplanted Oryza sativa, b: directly sowed Oryza sativa, c: Zea mays, d: Glycine max, e: Triticum aestivum, f: Beta vulgaris ssp. vulgaris, and g: Brassica campestris L. The application herbicide amount (g/ha) means an amount that a concentration is adjusted so that, when an application amount is converted into per hectare (1 ha), the herbicide is applied by the number of grams (g) of the described value.

Digitaria ciliaris = test: as above
Excerpt: as §1

Avena fatua = test: as above
Excerpt: as §1

Amaranthus retroflexus = test: as above
Excerpt: as §1

Stellaria media = test: as above
Excerpt: as §1

Chenopodium album = test: as above
Excerpt: as §1

Abutilon theophrasti = test: as above
Excerpt: as §1

Veronica persica = test: as above
Excerpt: as §1

Setaria viridis = test: as above
Excerpt: as §1

Alopecurus myosuroides = test: as above
Excerpt: as §1

Galium spurium = test: as above
Excerpt: as §1

Apera spica-venti. = test: as above
Excerpt: as §1

[1] = test system: Echinochloa crus-galli var. crus-galli; test: as above
Excerpt: as §1

[2] = test system: directly sowed Oryza sativa; test: Test Example 4: effect on crop by application to foliage (diluvial soil, plastic box)
Excerpt: as §1

[3] = test system: Beta vulgaris ssp. vulgaris; test: as above
Excerpt: as §1

Brassica campestris L. = test: as above
Excerpt: as §1

Zea mays = test: as above
Excerpt: as §1

Glycine max = test: as above
Excerpt: as §1

Triticum aestivum = test: as above
Excerpt: as §1

| Structure (SMILES) | herbicidal effect, K (Lolium multiflorum Lam.) (Lolium multiflorum Lam.) | herbicidal effect, F (Digitaria ciliaris) (Digitaria ciliaris) | herbicidal effect, I (Avena fatua) (Avena fatua) | herbicidal effect, N (Amaranthus retroflexus) (Amaranthus retroflexus) | herbicidal effect, P (Stellaria media) (Stellaria media) | herbicidal effect, O (Chenopodium album) (Chenopodium album) | herbicidal effect, M (Abutilon theophrasti) (Abutilon theophrasti) | herbicidal effect, R (Veronica persica) (Veronica persica) | herbicidal effect, G (Setaria viridis) (Setaria viridis) | herbicidal effect, J (Alopecurus myosuroides) (Alopecurus myosuroides) | herbicidal effect, Q (Galium spurium) (Galium spurium) | herbicidal effect, L (Apera spica-venti.) (Apera spica-venti.) | herbicidal effect, H (Echinochloa crus-galli var. crus-galli) [1] | effect on crop, d (directly sowed Oryza sativa) [2] | effect on crop, f (Beta vulgaris ssp. vulgaris) [3] | effect on crop, g (Brassica campestris L.) (Brassica campestris L.) | effect on crop, b (Zea mays) (Zea mays) | effect on crop, c (Glycine max) (Glycine max) | effect on crop, e (Triticum aestivum) (Triticum aestivum) |
| --- | --- | --- | --- | --- | --- | --- | --- | --- | --- | --- | --- | --- | --- | --- | --- | --- | --- | --- | --- |
| Cc1nnc(NC(=O)c2ccc(C(F)(F)F)n3c(=O)n(Cc4ccccc4)nc23)o1 [6-006] | 0 (Herbicidal ratio of 5% or less (almost no effect)) | 0 (Herbicidal ratio of 5% or less (almost no effect)) | 0 (Herbicidal ratio of 5% or less (almost no effect)) | 0 (Herbicidal ratio of 5% or less (almost no effect)) | 1 (Herbicidal ratio of 5% or more and less than 20%) | 3 (Herbicidal ratio of 40% or more and less than 70%) | 1 (Herbicidal ratio of 5% or more and less than 20%) | 1 (Herbicidal ratio of 5% or more and less than 20%) | 0 (Herbicidal ratio of 5% or less (almost no effect)) | 0 (Herbicidal ratio of 5% or less (almost no effect)) | 0 (Herbicidal ratio of 5% or less (almost no effect)) | 0 (Herbicidal ratio of 5% or less (almost no effect)) | 0 (Herbicidal ratio of 5% or less (almost no effect)) | 0 (Herbicidal ratio of 5% or less (almost no effect)) | 0 (Herbicidal ratio of 5% or less (almost no effect)) | 0 (Herbicidal ratio of 5% or less (almost no effect)) | 0 (Herbicidal ratio of 5% or less (almost no effect)) | 0 (Herbicidal ratio of 5% or less (almost no effect)) | 0 (Herbicidal ratio of 5% or less (almost no effect)) |
| CCn1nc2c(C(=O)Nc3ncnn3C)ccc(C(F)(F)F)n2c1=O [6-007] | 0 (Herbicidal ratio of 5% or less (almost no effect)) | 0 (Herbicidal ratio of 5% or less (almost no effect)) | 0 (Herbicidal ratio of 5% or less (almost no effect)) | 3 (Herbicidal ratio of 40% or more and less than 70%) | 0 (Herbicidal ratio of 5% or less (almost no effect)) | 3 (Herbicidal ratio of 40% or more and less than 70%) | 2 (Herbicidal ratio of 20% or more and less than 40%) | 0 (Herbicidal ratio of 5% or less (almost no effect)) | 0 (Herbicidal ratio of 5% or less (almost no effect)) | 0 (Herbicidal ratio of 5% or less (almost no effect)) | 0 (Herbicidal ratio of 5% or less (almost no effect)) | 0 (Herbicidal ratio of 5% or less (almost no effect)) | 0 (Herbicidal ratio of 5% or less (almost no effect)) | 2 (Herbicidal ratio of 20% or more and less than 40%) | 3 (Herbicidal ratio of 40% or more and less than 70%) | 0 (Herbicidal ratio of 5% or less (almost no effect)) | 0 (Herbicidal ratio of 5% or less (almost no effect)) | 0 (Herbicidal ratio of 5% or less (almost no effect)) | 0 (Herbicidal ratio of 5% or less (almost no effect)) |
| CCn1nc2c(C(=O)Nc3nonc3C)ccc(C(F)(F)F)n2c1=O [6-008] | 0 (Herbicidal ratio of 5% or less (almost no effect)) | 0 (Herbicidal ratio of 5% or less (almost no effect)) | 0 (Herbicidal ratio of 5% or less (almost no effect)) | 0 (Herbicidal ratio of 5% or less (almost no effect)) | 1 (Herbicidal ratio of 5% or more and less than 20%) | 3 (Herbicidal ratio of 40% or more and less than 70%) | 1 (Herbicidal ratio of 5% or more and less than 20%) | 0 (Herbicidal ratio of 5% or less (almost no effect)) | 0 (Herbicidal ratio of 5% or less (almost no effect)) | 0 (Herbicidal ratio of 5% or less (almost no effect)) | 0 (Herbicidal ratio of 5% or less (almost no effect)) | 0 (Herbicidal ratio of 5% or less (almost no effect)) | 0 (Herbicidal ratio of 5% or less (almost no effect)) | 1 (Herbicidal ratio of 5% or more and less than 20%) | 1 (Herbicidal ratio of 5% or more and less than 20%) | 0 (Herbicidal ratio of 5% or less (almost no effect)) | 0 (Herbicidal ratio of 5% or less (almost no effect)) | 0 (Herbicidal ratio of 5% or less (almost no effect)) | 0 (Herbicidal ratio of 5% or less (almost no effect)) |

— patent publication US9708314B2, “Heterocyclic amide compound” (NISSAN CHEMICAL INDUSTRIES, LTD., priority 2013, dated 2017)
